Converted amounts (≈) assume the structure as drawn. “And” between values parts separate entries of the source, which are not always exact repeats. Equal entries are not always repeated. Structures can show the parent of a compound that is named as a salt. Where two headings read alike, the source gives them in different places. Numbered stars: 1 amine (or outer) side, 2 acyl side, 3 side chain; on linkers, the order of the positions; unused ones are H or OH. Bridge positions count the residues as written; N and C are the ends. Square brackets hold non-standard residues; d marks the D form. Peptide text beside a SMILES is read from it. I, II: the chains in the order shown. Actinocin(9to1) = Cc1c2oc3c(C)ccc(C(=O)[*:1])c3nc-2c(C(=O)[*:2])c(N)c1=O; NMeV = CN[C@H](C(=O)O)C(C)C; Sar = CNCC(=O)O
Legend:
[1] = test system: Bacillus subtilis 168; assay: Antibiotic MIC tests in microtiter plates; conditions: for effect on the MIC of streptomycin: related compounds tested for synergistic effect with streptomycin (text, Table 4 title); for MIC with anthranilic acid (2.2 mM): antibiotic against B. subtilis in the presence of anthranilic acid (2.2 mM); for Effect: effect of anthranilic acid (2.2 mM) on MIC of the antibiotic against B. subtilis; for effect on MIC value when combined with anthranilic acid: anthranilic acid at around 2 mM, B. subtilis
[2] = test system: Streptomyces MBT3; assay: TLC biogram / agar overlay antimicrobial assay of EtOAc extracts of Streptomyces MBT3 cultures treated with plant hormones; format: cell-based, Streptomyces sp MBT3 (indicator strain B. subtilis); conditions: methyl-jasmonate 100 μM or salicylic acid 250 μM added to 7 day cultures, 24 hours; B. subtilis indicator
Method: All media for growth of Streptomyces are described in (Kieser et al., 2000). For the preparation of Streptomyces cultures, spores were obtained from SFM agar plates and inoculated at a density of 5×10^6 into 20 ml liquid minimal media with mannitol and glycerol as the carbon sources culture media in a 250 ml Erlenmeyer flask and incubated at 30° C. in a rotary shaker (250 rpm). Mycelia were precipitated by centrifugation for 10 minutes at 12,000 g. Each replicate of culture supernatant was extracted twice with an equal amount (40 ml in total) of analytically pure EtOAc (Sigma-Aldrich St. Louis, Mo., USA). Two grams of Na2SO4 was then added into the organic phase to remove remaining water and was evaporated under vacuum at 38° C. Samples were then re-dissolved in Methanol-d4 (99.8%) (Cambridge Isotope Laboratories, Inc., Andover, Mass., USA) for NMR analysis. 1.5 ml of the culture was collected every three hours and centrifuged. […]
Actinomycetes are very abundantly present in the plant rhizosphere. […] The ethyl acetate extract of the culture fluid of MBT3 was analyzed further for metabolic profile and antimicrobial activity against Bacillus subtilis.
Antimicrobial activity of the extracts was analyzed using thin layer chromatography (TLC) biograms. […]

[3] = test system: Legionella pneumophila; conditions: Sasaki et al., 2012; cited from earlier work
[4] = Bacillus subtilis, 168, compound alone (Table 4)
[5] = antibiotic alone against B. subtilis (Table 2)
[6] = antibiotic alone against B. subtilis (Table 3)
[7] = Bacillus subtilis, 168, antibiotic alone against B. subtilis (Table 2)
[8] = Bacillus subtilis, 168, antibiotic alone against B. subtilis (Table 3)

With `O=C(O)[C@@H]1CCCN1` (racemic) [D,L-Proline] the MIC ([1]; compound alone (Table 4)) was over 750 µg/mL.

With `O=C(O)c1cccc(O)c1O` [2,3-dihydroxybenzoic acid] the MIC [1, 4] was 750 µg/mL (≈ 4870 µM) and the “effect on the MIC of streptomycin” value [1] was “duplication of the MIC value”.

Compound `Nc1cc(N)cc(C(=O)O)c1` [3,5-diaminobenzoic acid] has an MIC [1, 4] of over 750 µg/mL.

Compound `Nc1cccc(C(=O)O)c1` [3-aminobenzoic acid] has an MIC [1, 4] of 750 µg/mL (≈ 5470 µM).

In the case of `Nc1ccc(C(=O)O)cc1` [4-aminobenzoic acid], the MIC [1, 4] is reported as 750 µg/mL (≈ 5470 µM).

With `Cc1c2oc3c(C)ccc(C(=O)N[C@@H]4C(=O)N[C@H](C(C)C)C(=O)N5CCC[C@H]5C(=O)N(C)CC(=O)N(C)[C@@H](C(C)C)C(=O)O[C@@H]4C)c3nc-2c(C(=O)N[C@@H]2C(=O)N[C@H](C(C)C)C(=O)N3CCC[C@H]3C(=O)N(C)CC(=O)N(C)[C@@H](C(C)C)C(=O)O[C@@H]2C)c(N)c1=O` [Actinomycin D] (I: T[dV]P[Sar][NMeV] / II: T[dV]P[Sar][NMeV]; ester I:1-I:C, II:1-II:C; linker I:N-II:N via Actinocin(9to1)) the “MIC with anthranilic acid (2.2 mM)” value [1] was 0.156 µg/mL, the MIC [1, 5] was 0.156 µg/mL (≈ 0.124 µM) and the MIC [1, 6] was 0.156 µg/mL (≈ 0.124 µM). The Effect [1] was “No effect”.

`CC1(C)S[C@@H]2[C@H](NC(=O)[C@H](N)c3ccccc3)C(=O)N2[C@H]1C(=O)O` [Ampicillin (sodium salt), Ampicillin] showed an MIC [1, 7] of 0.0153 µg/mL.

Compound `NC(=O)c1ccccc1N` [Anthranilic acid amide] has an MIC [1, 4] of over 1500 µg/mL.

With `CN[C@@H]1[C@@H](O[C@H]2O[C@H](CO)[C@@H](N)[C@H](O)[C@H]2O)OC2C[C@@H](N)[C@@H](O[C@H]3[C@H](O)[C@@H](O)[C@H](N)C[C@@H]3N)OC2[C@@H]1O` (stereo partly drawn) [Apramycin (sulfate), Apramycin] the MIC [1, 7] was 1.95 µg/mL, the MIC [1, 8] was 1.95 µg/mL and the “MIC with anthranilic acid (2.2 mM)” value [1] was 1.953 µg/mL. The Effect [1] was “No effect”.

In the case of `Oc1ccccc1O` [Catechol], the MIC [1, 4] is reported as 750 µg/mL (≈ 6810 µM) and the “effect on the MIC of streptomycin” value [1] is reported as “duplication of the MIC value”.

For `CC1=C(C(=O)O)N2C(=O)[C@@H](NC(=O)[C@H](N)c3ccccc3)[C@H]2SC1` [Cephalexin (1H2O), Cephalexin], the MIC [1, 7] was 0.122 µg/mL (≈ 0.351 µM), the MIC [1, 8] was 0.122 µg/mL (≈ 0.351 µM) and the Effect [1] was “Lower MIC”.

With `O=C(N[C@H](CO)[C@H](O)c1ccc([N+](=O)[O-])cc1)C(Cl)Cl` [Chloramphenicol] the MIC [1, 7] was 125 µg/mL (≈ 387 µM), the MIC [1, 8] was 125 µg/mL (≈ 387 µM) and the “MIC with anthranilic acid (2.2 mM)” value [1] was 125 µg/mL. The Effect [1] was “No effect”.

For `CCC[C@@H]1C[C@@H](C(=O)N[C@@H]([C@H]2O[C@H](SC)[C@H](O)[C@@H](O)[C@H]2O)[C@H](C)Cl)N(C)C1` [Clindamycin (HCl), Clindamycin], the MIC [1, 7] was 0.488 µg/mL, the MIC [1, 8] was 0.488 µg/mL and the “MIC with anthranilic acid (2.2 mM)” value [1] was 0.244 µg/mL.

In the case of `CC[C@H]1OC(=O)[C@H](C)[C@@H](O[C@H]2C[C@@](C)(OC)[C@@H](O)[C@H](C)O2)[C@H](C)[C@@H](O[C@@H]2O[C@H](C)C[C@H](N(C)C)[C@H]2O)[C@](C)(O)C[C@@H](C)C(=O)[C@H](C)[C@@H](O)[C@]1(C)O` [Erythromycin], the MIC [1, 7] is reported as 0.122 µg/mL (≈ 0.166 µM).

With `NC[C@H]1O[C@H](O[C@H]2[C@H](O)[C@@H](O[C@H]3O[C@H](CO)[C@@H](O)[C@H](N)[C@H]3O)[C@H](N)C[C@@H]2N)[C@H](O)[C@@H](O)[C@@H]1O` [Kanamycin (sulfate), Kanamycin] the MIC [1, 7] was 125 µg/mL, the MIC [1, 8] was 125 µg/mL and the “MIC with anthranilic acid (2.2 mM)” value [1] was 31.2 µg/mL.

Compound `O=C1O[C@H]([C@@H](O)CO)C(O)=C1O` [L-Ascorbic acid (sodium salt), L-Ascorbic acid] has an MIC [1, 4] of over 750 µg/mL.

`O=C(O)[C@@H]1CCCN1` [L-Proline] gave an MIC [1, 4] of over 1500 µg/mL.

Compound `CCn1cc(C(=O)O)c(=O)c2ccc(C)nc21` [Nalidixic acid] has an MIC [1, 7] of 3.1 µg/mL (≈ 13.3 µM).

For `CC1(C)S[C@@H]2[C@H](NC(=O)Cc3ccccc3)C(=O)N2[C@H]1C(=O)[O-].[Na+]` [Penicillin G (sodium salt), Penicillin G], the “effect on MIC value when combined with anthranilic acid” value (from here on “effect on MIC value when combined”) [1] was “decreased”, the “MIC with anthranilic acid (2.2 mM)” value [1] was 0.0031 µg/mL and the MIC [1, 5] was 0.0062 µg/mL. For the same compound, the MIC [1, 6] was 0.0062 µg/mL and the Effect [1] was “Lower MIC”.

For `CO[C@H]1/C=C/O[C@@]2(C)Oc3c(C)c(O)c4c(O)c(c(/C=N/N5CCN(C)CC5)c(O)c4c3C2=O)NC(=O)/C(C)=C\C=C\[C@H](C)[C@H](O)[C@@H](C)[C@@H](O)[C@@H](C)[C@H](OC(C)=O)[C@@H]1C` [Rifampin], the MIC [1, 7] was 0.0122 µg/mL (≈ 0.0148 µM), the MIC [1, 8] was 0.0122 µg/mL (≈ 0.0148 µM) and the “MIC with anthranilic acid (2.2 mM)” value [1] was 0.0122 µg/mL. For the same compound, the Effect [1] was “No effect”.

In the case of `O=C(O)c1ccccc1O` [Salicylic acid (sodium salt), Salicylic acid], the “effect on antimicrobial activity (bioactivity) of MBT3” value [2] is reported as “no effect” and the MIC [1, 4] is reported as over 1500 µg/mL.

With `[H]/N=C(/N)N[C@H]1[C@H](O)[C@@H](O)[C@H](O[C@@H]2O[C@@H](C)[C@](O)(C=O)[C@H]2O[C@@H]2O[C@@H](CO)[C@H](O)[C@@H](O)[C@@H]2NC)[C@@H](N/C(N)=N\[H])[C@@H]1O` [Streptomycin (sulfate), Streptomycin] the MIC of streptomycin ([1]; 75 μg/μl anthranilate) was 15000 µg/mL, the “reduction of MIC of streptomycin” value ([1]; 75 μg/μl anthranilate) was 50% and the MIC [1, 7] was 31.2 µg/mL. It also gave an MIC [1, 8] of 31.2 µg/mL, an MIC [1, 4] of 31.2 µg/mL and an MIC ([1]; Bacillus subtilis, 168, read-out: MIC value of streptomycin, Bacillus subtilis, no anthranilic acid (FIG. 3)) of 31.2 µg/mL. For the same compound, the MIC ([1]; Bacillus subtilis, 168, read-out: MIC value of streptomycin, at 300 μg/ml anthranilic acid (FIG. 3)) was 5 µg/mL, the “MIC value of streptomycin” value ([1]; Bacillus subtilis, no anthranilic acid (FIG. 3)) was 30 µg/mL and 31.25 ± 0.05 µg/mL and the “reduction in the MIC of streptomycin” value ([1]; anthranilate at concentrations of 300 μg/μl and higher) was “six-fold”. For the same compound, the “MIC value of Streptomycin reduced by a factor” value ([1]; anthranilic acid about 50 μg/ml in the culture) was 2, the “MIC value of Streptomycin reduced by a factor” value ([1]; anthranilic acid about 150 μg/ml in the culture) was 3 and the “MIC value of Streptomycin reduced by a factor” value ([1]; anthranilic acid about 300 μg/ml in the culture) was 6. For the same compound, the “effect on MIC value when combined” value [1] was “decreased”, the “MIC with anthranilic acid (2.2 mM)” value [1] was 5 µg/mL and the “decrease of streptomycin MIC (times)” value ([1]; combined with anthranilic acid, concentration dependent) was “up to 6 times”. The Effect [1] was “Lower MIC”.

In the case of `CN[C@H](CC(C)C)C(=O)N[C@H]1C(=O)N[C@@H](CC(N)=O)C(=O)N[C@H]2C(=O)N[C@H]3C(=O)N[C@H](C(=O)N[C@H](C(=O)O)c4cc(O)cc(O)c4-c4cc3ccc4O)[C@H](O)c3ccc(c(Cl)c3)Oc3cc2cc(c3O[C@@H]2O[C@H](CO)[C@@H](O)[C@H](O)[C@H]2O[C@H]2C[C@](C)(N)[C@H](O)[C@H](C)O2)Oc2ccc(cc2Cl)[C@H]1O` [Vancomycin (HCl), Vancomycin], the MIC ([1]; Bacillus subtilis, 168) is reported as 0.156 µg/mL, the “effect on MIC value when combined” value [1] is reported as “No synergistic effect” and the “MIC with anthranilic acid (2.2 mM)” value [1] is reported as 0.156 µg/mL. The MIC [1, 6] was 0.156 µg/mL and the Effect [1] was “No effect”.

For `Nc1ccccc1C(=O)O` [anthranilic acid], the growth inhibitory effect [3] is listed as “mild growth inhibitory effect” and the “activity against B. subtilis” value ([1]; compound itself, at concentrations below 5 mg/ml) is listed as “did not show any activity”.

In the case of `CC/C=C\CC1C(=O)CCC1CC(=O)OC` (stereo not drawn) [methyl jasmonate], the “effect on antimicrobial activity (bioactivity) of MBT3” value [2] is reported as “strongly enhanced”.

With Actinomycin C the “effect on MIC value when combined” value [1] was “decreased”, the “MIC with anthranilic acid (2.2 mM)” value [1] was 0.039 µg/mL and the MIC [1, 5] was 0.078 µg/mL. For the same compound, the MIC [1, 6] was 0.078 µg/mL and the Effect [1] was “Lower MIC”.

Compound Actinomycin C2 has an MIC [1, 5] of 0.25 µg/mL.

In the case of Benzoic acid, the MIC ([1]; compound alone (Table 4)) is reported as over 750 µg/mL.

In the case of Gentamycin [Gentamycin (sulfate)], the “effect on MIC value when combined” value [1] is reported as “decreased”, the “MIC with anthranilic acid (2.2 mM)” value [1] is reported as 0.625 µg/mL and the MIC [1, 5] is reported as 1.25 µg/mL. For the same compound, the MIC [1, 6] was 1.25 µg/mL and the Effect [1] was “Lower MIC”.

For Neomycin [Neomycin (sulfate)], the “effect on MIC value when combined” value [1] was “decreased”, the “MIC with anthranilic acid (2.2 mM)” value [1] was 15.6 µg/mL and the MIC [1, 5] was 62.5 µg/mL. For the same compound, the MIC [1, 6] was 62.5 µg/mL and the Effect [1] was “Lower MIC”.
